In article PMC5742231 (Frontiers in Chemistry, 2017):

Experiments:
[1] = tested on: Bacteriophage ΔTOX:GFP (ϕΔTOX:GFP); type: cell-based
S. aureus = conditions: cited from earlier work
[2] = tested on: different bacterial strains; conditions: cited from earlier work

Row | Sequence | bacteriophage inactivation activity (in words) [1] | phages inactivated [1] [%] | other results
1 | ILRWPWWPWRRK [Omiganan, reference compound] | no inactivation activity |  | antimicrobial activity against S. aureus (S. aureus): activity against S. aureus
2 | RIVQRIAKWAKKWYKAGK [Peptide 8.1] | lowest inactivation activity |  | 
3 | RIVQRIKKWLLKWKKLGY [Peptide 5] |  | ~100 | 
4 | GLLKKWLKKWKEFKRIVGY [Peptide 2] | lowest inactivation activity |  | shape of phage neutralizing activity vs. concentration curve [1]: bell curve shaped behavior
5 | MVVFSVPKFKSTVAKLLSSA [Random peptide, reference compound] | no inactivation activity |  | antimicrobial activity [2]: no antimicrobial activity
6 | RIVQRILKWLKKWYKLGK [Peptide 8] |  | ~100 | 
7 | GLLRKWGKKWKEFLRRVWK [Peptide 6.2] |  | ~100 | shape of phage neutralizing activity vs. concentration curve [1]: bell curve shaped behavior
